# Where a name gives a salt, the structure may show the parent alone.
# Target: SHP2 (Homo sapiens (Human), UniProt Q06124)
# Assay: SHP2 Allosteric Inhibition Assay (DiFMUP prompt fluorescence)
# Assay type: biochemical
# Conditions: 0.25 nM SHP2 activated with 0.5 μM peptide IRS1_pY1172(dPEG8)pY1222; substrate DiFMUP 100 μM; 25° C.
row,Structure (SMILES),IC50 [nM]
1,CC1(N)CCN(c2cnc3c(N4CCCc5c(-c6nccs6)cccc54)n[nH]c3n2)CC1 [Compound 64],< 1000
2,CC1(CN)CCN(c2cnc3c(N4CCCc5c(-c6ccccc6)cccc54)n[nH]c3n2)CC1 [Compound 65],< 1000
3,CC1(CN)CCN(c2cnc3c(N4CCCc5c(-c6cccnc6)cccc54)n[nH]c3n2)CC1 [Compound 66],< 1000
4,Cc1ccncc1-c1cccc2c1CCCN2c1n[nH]c2nc(N3CCC(C)(N)CC3)cnc12 [Compound 67],< 1000
5,CC1(CN)CCN(c2cnc3c(N4CCN(c5cccnc5)c5ccccc54)n[nH]c3n2)CC1 [Compound 68],< 1000
6,CC1(CN)CCN(c2cnc3c(N4CCCc5c(-c6ccc(F)cc6)cccc54)n[nH]c3n2)CC1 [Compound 69],< 1000
7,CC1(CN)CCN(c2cnc3c(N4CCCc5c(-c6ccc(F)c(F)c6)cccc54)n[nH]c3n2)CC1 [Compound 70],< 1000
8,"CC1(N)CCN(c2cnc3c(N4CCCc5c(-c6nc(C(=O)O)cs6)cccc54)n[nH]c3n2)CC1 [Compound 71, 2-(1-(6-(4-amino-4-methylpiperidin-1-yl)-1H-pyrazolo[3,4-b]pyrazin-3-yl)-1,2,3,4-tetrahydroquinolin-5-yl)thiazole-4-carboxylic acid]",< 1000
9,CC1(CN)CCN(c2cnc3c(N4CCCc5c(-c6cc(F)c(F)c(F)c6)cccc54)n[nH]c3n2)CC1 [Compound 72],< 1000
10,Cc1nnc2c(-c3cccc4c3CCCN4c3n[nH]c4nc(N5CCC(C)(CN)CC5)cnc34)cccn12 [Compound 73],< 1000
11,CC1(CN)CCN(c2cnc3c(N4CCCc5c(-c6cccc(Oc7ccccc7)c6)cccc54)n[nH]c3n2)CC1 [Compound 75],< 1000
12,NCC1(F)CCN(c2cnc3c(N4CCCc5ncccc54)n[nH]c3n2)CC1 [Compound 76],< 1000
13,CC1(CN)CCN(c2cnc3c(N4CCCc5cc(C#N)ccc54)n[nH]c3n2)CC1 [Compound 77],< 1000
14,CC1(CN)CCN(c2cnc3c(N4CCCc5c(C(F)F)cccc54)n[nH]c3n2)CC1 [Compound 78],< 1000
15,"CNC(=O)c1cccc2c1CCCN2c1n[nH]c2nc(N3CCC(C)(CN)CC3)cnc12 [Compound 79, 1-(6-(4-(Aminomethyl)-4-methylpiperidin-1-yl)-1H-pyrazolo[3,4-b]pyrazin-3-yl)-N-methyl-1,2,3,4-tetrahydroquinoline-5-carboxamide]",< 1000
16,"CN(C)C(=O)c1cccc2c1CCCN2c1n[nH]c2nc(N3CCC(C)(CN)CC3)cnc12 [Compound 80, 1-(6-(4-(Aminomethyl)-4-methylpiperidin-1-yl)-1H-pyrazolo[3,4-b]pyrazin-3-yl)-N,N-dimethyl-1,2,3,4-tetrahydroquinoline-5-carboxamide]",< 1000
17,COC(=O)c1ccc2c(n1)CCCN2c1n[nH]c2nc(N3CCC(C)(CN)CC3)cnc12 [Compound 81],< 1000
18,"NCC1(CO)CCN(c2cnc3c(N4CCCc5ncccc54)n[nH]c3n2)CC1 [Compound 82, (4-(aminomethyl)-1-(3-(3,4-dihydro-1,5-naphthyridin-1(2H)-yl)-1H-pyrazolo[3,4-b]pyrazin-6-yl)piperidin-4-yl)methanol dihydrochloride]",< 1000
19,CCCC1CCN(c2n[nH]c3nc(N4CCC(C)(CN)CC4)cnc23)c2ccccc21 (stereo not drawn) [Compound 83],< 1000
20,CCC1CCN(c2n[nH]c3nc(N4CCC(C)(CN)CC4)cnc23)c2ccccc21 (stereo not drawn) [Compound 84],< 1000
21,CCc1cccc2c1CCCN2c1n[nH]c2nc(N3CCC(C)(CN)CC3)cnc12 [Compound 85],< 1000
22,CC1(CN)CCN(c2cnc3c(N4CCCc5c(C6CC6)cccc54)n[nH]c3n2)CC1 [Compound 86],< 1000
23,CC1(CN)CCN(c2cnc3c(N4CCCc5c(C#N)cccc54)n[nH]c3n2)CC1 [Compound 87],< 1000
24,CC1(CN)CCN(c2cnc3c(N4CCC(C)(C)c5ccccc54)n[nH]c3n2)CC1 [Compound 88],< 1000
25,CC(C)C1CCN(c2n[nH]c3nc(N4CCC(C)(CN)CC4)cnc23)c2ccccc21 (stereo not drawn) [Compound 89],< 1000
26,Cc1ccnc2c1N(c1n[nH]c3nc(N4CCC(C)(CN)CC4)cnc13)CCC2 [Compound 90],1000 to 10000
27,CC(C)c1cccc2c1CCCN2c1n[nH]c2nc(N3CCC(C)(CN)CC3)cnc12 [Compound 91],< 1000

# Other lines, results leading:
row,IC50 [nM],Structure (SMILES)
1,< 1000,CC1(CN)CCN(c2cnc3c(N4CCCc5cc(S(C)(=O)=O)ccc54)n[nH]c3n2)CC1 [Compound 92]
2,< 1000,CC1CCN(c2n[nH]c3nc(N4CCC(C)(CN)CC4)cnc23)c2ccc(C#N)cc21 (stereo not drawn) [Compound 93]
3,< 1000,CC1(CN)CCN(c2cnc3c(N4CCC(c5ccccc5)c5ccccc54)n[nH]c3n2)CC1 (stereo not drawn) [Compound 96]
4,< 1000,"CCCC1(CN)CCN(c2cnc3c(N4CCCc5ncccc54)n[nH]c3n2)CC1 [Compound 97, (1-(3-(3,4-dihydro-1,5-naphthyridin-1(2H)-yl)-1H-pyrazolo[3,4-b]pyrazin-6-yl)-4-propylpiperidin-4-yl)methanamine dihydrochloride]"
5,< 1000,"CCC1(CN)CCN(c2cnc3c(N4CCCc5ncccc54)n[nH]c3n2)CC1 [Compound 98, (1-(3-(3,4-dihydro-1,5-naphthyridin-1(2H)-yl)-1H-pyrazolo[3,4-b]pyrazin-6-yl)-4-ethylpiperidin-4-yl)methanamine dihydrochloride]"
6,< 1000,"CC1(CN)CCN(c2cnc3c(N4CCC(CO)c5ccccc54)n[nH]c3n2)CC1 (stereo not drawn) [Compound 99, (1-(6-(4-(Aminomethyl)-4-methylpiperidin-1-yl)-1H-pyrazolo[3,4-b]pyrazin-3-yl)-1,2,3,4-tetrahydroquinolin-4-yl)methanol]"
7,< 1000,"CNC(=O)C1CCN(c2n[nH]c3nc(N4CCC(C)(CN)CC4)cnc23)c2ccccc21 (stereo not drawn) [Compound 100, 1-(6-(4-(Aminomethyl)-4-methylpiperidin-1-yl)-1H-pyrazolo[3,4-b]pyrazin-3-yl)-N-methyl-1,2,3,4-tetrahydroquinoline-4-carboxamide]"
8,< 1000,"COC1(CN)CCN(c2cnc3c(N4CCCc5ncccc54)n[nH]c3n2)CC1 [Compound 101, (1-(3-(3,4-dihydro-1,5-naphthyridin-1(2H)-yl)-1H-pyrazolo[3,4-b]pyrazin-6-yl)-4-methoxypiperidin-4-yl)methanamine]"
9,< 1000,CC1(CN)CCN(c2cnc3c(N4CCC(C(F)(F)F)c5ccccc54)n[nH]c3n2)CC1 (stereo not drawn) [Compound 106]
10,< 1000,"CNC(=O)c1cccc2c1CCN2c1n[nH]c2nc(N3CCC(C)(CN)CC3)cnc12 [Compound 107, 1-(6-(4-(aminomethyl)-4-methylpiperidin-1-yl)-1H-pyrazolo[3,4-b]pyrazin-3-yl)-N-methylindoline-4-carboxamide]"
11,< 1000,"CC1(CN)CCN(c2cnc3c(N4CCc5c(C(N)=O)cccc54)n[nH]c3n2)CC1 [Compound 108, 1-(6-(4-(aminomethyl)-4-methylpiperidin-1-yl)-1H-pyrazolo[3,4-b]pyrazin-3-yl)indoline-4-carboxamide]"
12,< 1000,"CC1CCN(c2n[nH]c3nc(N4CCC(C)(CN)CC4)cnc23)c2ccc(C(N)=O)cc21 (stereo not drawn) [Compound 112, 1-(6-(4-(aminomethyl)-4-methylpiperidin-1-yl)-1H-pyrazolo[3,4-b]pyrazin-3-yl)-4-methyl-1,2,3,4-tetrahydroquinoline-6-carboxamide formate]"

# From patent US11591336B2 (Relay Therapeutics, Inc., priority 2017, dated 2023)
